Assay results published in patent US9577283B2, “Energy storage battery” (NISSIN ELECTRIC CO., LTD., priority 2012, dated 2017).

Assay: attempt to prepare 0.2 mol/L aqueous solution of Mn(II) complex (deposition of manganese compound)
Assay type: physicochemical
Conditions: target concentration 0.2 mol/L, metal:ligand 1:1, pH 7, with Na2SO4
Source text: Accordingly, it was known that if malonic acid as a polycarboxylic acid is used instead of polyethyleneimine, it is impossible to prepare a cathode electrolyte containing a Mn(II) complex in a sufficient concentration.
Accordingly, it was known that if succinic acid as a polycarboxylic acid is used instead of polyethyleneimine, it is impossible to prepare a cathode electrolyte containing a Mn(II) complex at a sufficient concentration.
Accordingly, it was known that if ethylenediamine is used instead of polyethyleneimine, it is impossible to prepare a cathode electrolyte containing a Mn(II) complex at a sufficient concentration.
Meanwhile, the cathode electrolyte was prepared as follows. Firstly, 0.1 mol (6.0 g) of ethylenediamine was added to and dissolved in 70 ml of distilled water.

Mn(II)-malonic acid complex
deposition of manganese compound on preparing aqueous solution: manganese compound is immediately deposited
